Reference: patent US20070179060A1, “6-(Poly-substituted aryl)-4-aminopicolinates and their use as herbicides” (priority 2006, published 2007)

Columns and labels:
[1] = test system: lambsquarter (Chenopodium album); experiment: Postemergence herbicidal activity; type: in vivo; settings: post-emergent, 140 g ai/ha, after 14 days; for pest or weed control at 140 g/ha: Chenopodium album, post-emergence, 336 h, read-out: % Control CHEAL
Experimental: (§1) Seeds or nutlets of the desired test plant species were planted in Sun Gro MetroMix® 306 planting mixture, which typically has a pH of 6.0 to 6.8 and an organic matter content of about 30 percent, in plastic pots with a surface area of 64 square centimeters. When required to ensure good germination and healthy plants, a fungicide treatment and/or other chemical or physical treatment was applied. The plants were grown for 7-21 days in a greenhouse with an approximate 15 hour photoperiod which was maintained at about 23-29° C. during the day and 22-28° C. during the night. Nutrients and water were added on a regular basis and supplemental lighting was provided with overhead metal halide 1000-Watt lamps as necessary. The plants were employed for testing when they reached the first or second true leaf stage. […] The concentrated stock solutions obtained were diluted with 20 mL of an aqueous mixture containing acetone, water, isopropyl alcohol, DMSO, Atplus 411F crop oil concentrate, and Triton® X-155 surfactant in a 48.5:39:10:1.5:1.0:0.02 v/v ratio to obtain spray solutions containing the highest application rates. […] Compound requirements are based upon a 12 mL application volume at a rate of 187 L/ha. Formulated compounds were applied to the plant material with an overhead Mandel track sprayer equipped with a […] nozzles calibrated to deliver 187 L/ha over an application area of 0.503 square meters at a spray height of 18 inches (43 cm) above the average plant canopy height. Control plants were sprayed in the same manner with the solvent blank. The treated plants and control plants were placed in a greenhouse as described above and watered by sub-irrigation to prevent wash-off of the test compounds. […] By applying the well-accepted probit analysis as described by J. Berkson in Journal of the American Statistical […], 48, 565 (1953) and by D.

[2] = test system: redroot pigweed (Amaranthus retroflexus); experiment: Postemergence herbicidal activity; type: in vivo; settings: post-emergent, 140 g ai/ha, after 14 days; for pest or weed control at 140 g/ha: Amaranthus retroflexus, post-emergence, 336 h, read-out: % Control AMARE
Experimental: as §1

[3] = test system: velvetleaf (Abutilon theophrasti); experiment: Postemergence herbicidal activity; type: in vivo; settings: post-emergent, 140 g ai/ha, after 14 days; for pest or weed control at 140 g/ha: Abutilon theophrasti, post-emergence, 336 h, read-out: % Control ABUTH
Experimental: as §1

Row | Structure (SMILES) | melting point | pest or weed control at 140 g/ha [1] [%] | pest or weed control at 140 g/ha [2] [%] | pest or weed control at 140 g/ha [3] [%] | % Control CHEAL [1] [%] | % Control AMARE [2] [%] | % Control ABUTH [3] [%]
1 | COC(=O)c1nc(-c2cc(OC)c(Cl)cc2F)cc(NC(C)=O)c1Cl [Compound 18, 4-acetylamino-3-chloro-6-(4-chloro-2-fluoro-5-methoxy-phenyl)pyridine-2-carboxylic acid methyl ester] | 180 to 182 °C | – | – | – | – | – | –
2 | COC(=O)c1nc(-c2ccc(Cl)c(C3CC3)c2F)cc(N)c1Cl [Compound 81, 4-Amino-3-chloro-6-(4-chloro-3-cyclopropyl-2-fluorophenyl)pyridine-2-carboxylic acid, methyl ester] | 135 to 136.5 °C | 95 | 100 | 100 | – | – | –
3 | COC(=O)c1nc(-c2ccc(Cl)c(C)c2F)cc(NC(C)=O)c1Cl [Compound 19, 4-Acetylamino-3-chloro-6-(4-chloro-2-fluoro-3-methylphenyl)pyridine-2-carboxylic acid methyl ester] | 151 to 152 °C | – | – | – | – | – | –
4 | CCOc1c(F)ccc(-c2cc(N)c(Cl)c(C(=O)OC)n2)c1F [Compound 80, 4-Amino-3-chloro-6-(2,4-difluoro-3-ethoxyphenyl)pyridine-2-carboxylic acid, methyl ester] | 158 to 159 °C | 95 | 100 | 100 | – | – | –
5 | Nc1cc(-c2ccc(Cl)c(C(F)F)c2F)nc(C(=O)O)c1Cl [Compound 106, 4-Amino-3-chloro-6-(4-chloro-2-fluoro-3-difluoromethylphenyl)pyridine-2-carboxylic acid] | 182 to 183 °C (dec.) | 90 | 100 | 90 | – | – | –
6 | COC(=O)c1nc(-c2ccc(F)c(F)c2F)cc(NC(C)=O)c1Cl [Compound 33, 4-Acetylamino-3-chloro-6-(2,3,4-trifluorophenyl)pyridine-2-carboxylic acid, methyl ester] | 169 to 171 °C | 90 | 95 | 95 | – | – | –
7 | COCOc1c(Cl)ccc(-c2cc(N)c(Cl)c(C(=O)OC)n2)c1F [Compound 68, 4-Amino-3-chloro-6-(4-chloro-2-fluoro-3-methoxymethoxyphenyl)pyridine-2-carboxylic acid, methyl ester] | 99 °C | 100 | 100 | 95 | – | – | –
8 | COC(=O)c1nc(-c2ccc(Cl)c(OC(F)F)c2F)cc(N)c1Cl [Compound 69, 4-Amino-3-chloro-6-(4-chloro-2-fluoro-3-difluoromethoxyphenyl)pyridine-2-carboxylic acid, methyl ester] | 164 °C | 100 | 100 | 100 | – | – | –
9 | COC(=O)c1nc(-c2ccc(Cl)c(OCC(F)F)c2F)cc(N)c1Cl [Compound 8, 4-Amino-3-chloro-6-[4-chloro-2-fluoro-3-(2,2-difluoroethoxy)phenyl]pyridine-2-carboxylic acid methyl ester] | 134 to 136 °C | 95 | 100 | 80 | – | – | –
10 | COCOc1c(Cl)ccc(-c2cc(NC(C)=O)c(Cl)c(C(=O)OC)n2)c1F [Compound 34, 4-Acetylamino-3-chloro-6-(4-chloro-2-fluoro-3-methoxymethoxy-phenyl)pyridine-2-carboxylic acid, methyl ester] | 122 to 123 °C | – | – | – | – | – | –
11 | COc1c(C(F)(F)F)ccc(-c2cc(N)c(Cl)c(C(=O)O)n2)c1F [Compound 107, 4-Amino-3-chloro-6-(2-fluoro-3-methoxy-4-trifluoromethylphenyl)pyridine-2-carboxylic acid] | 177 to 178 °C (dec.) | 90 | 80 | 100 | – | – | –
12 | COC(=O)c1nc(-c2ccc(Cl)c(C)c2Cl)cc(NC(C)=O)c1Cl [Compound 24, 4-Acetylamino-3-chloro-6-(2,4-dichloro-3-methylphenyl)pyridine-2-carboxylic acid methyl ester] | 172 to 174 °C | – | – | – | – | – | –
13 | COC(=O)c1nc(-c2ccc(Cl)c(OC)c2F)cc(NC(C)=O)c1Cl [Compound 20, 4-Acetylamino-3-chloro-6-(4-chloro-2-fluoro-3-methoxyphenyl)pyridine-2-carboxylic acid methyl ester] | 159 to 160 °C | – | – | – | – | – | –
14 | COC(=O)c1nc(-c2sc(F)c(CF)c2Cl)cc(N)c1Cl [Compound 85, 4-amino-3-chloro-6-(4-chloro-2-fluoro-3-fluoromethylthiophenyl)pyridine-2-carboxylic acid methyl ester] | 104 to 105 °C | – | – | – | – | – | –
15 | CCCCOc1c(Cl)ccc(-c2cc(N)c(Cl)c(C(=O)O)n2)c1F [Compound 124, 4-Amino-3-chloro-6-(4-chloro-3-butoxy-2-fluorophenyl)pyridine-2-carboxylic acid] | 157 to 158 °C (dec.) | – | – | – | – | – | –
16 | COC(=O)c1nc(-c2ccc(F)c(C)c2F)cc(NC(C)=O)c1Cl [Compound 23, 4-acetylamino-3-chloro-6-(2,4-difluoro-3-methylphenyl)-pyridine-2-carboxylic acid methyl ester] | 152 to 153 °C | – | – | – | – | – | –
17 | COC(=O)c1nc(-c2ccc(F)c(OC)c2Cl)cc(NC(C)=O)c1Cl [Compound 29, 4-Acetylamino-3-chloro-(2-chloro-4-fluoro-3-methoxyphenyl)pyridine-2-carboxylic acid, methyl ester] | – | – | – | – | 98 | 40 | 95

Now from value to compound, other results behind:

Row | melting point | Structure (SMILES) | pest or weed control at 140 g/ha [1] [%] | pest or weed control at 140 g/ha [2] [%] | pest or weed control at 140 g/ha [3] [%] | % Control CHEAL [1] [%] | % Control AMARE [2] [%] | % Control ABUTH [3] [%]
18 | 178 to 179 °C | COc1c(C)ccc(-c2cc(N)c(Cl)c(C(=O)O)n2)c1F [Compound 119, 4-Amino-3-chloro-6-(2-fluoro-3-methoxy-4-methylphenyl)pyridine-2-carboxylic acid] | 95 | 100 | 100 | – | – | –
19 | 182 to 183 °C (dec.) | Nc1cc(-c2ccc(Cl)c(C(F)F)c2Cl)nc(C(=O)O)c1Cl [Compound 126, 4-Amino-3-chloro-6-(2,4-dichloro-3-difluoromethylphenyl)pyridine-2-carboxylic acid] | 100 | 100 | 90 | – | – | –
20 | 159 °C (dec.) | COCOc1c(Cl)ccc(-c2cc(N)c(Cl)c(C(=O)O)n2)c1F [Compound 132, 4-Amino-3-chloro-6-(4-chloro-2-fluoro-3-methoxymethoxyphenyl)pyridine-2-carboxylic acid] | – | – | – | – | – | –
21 | 178 to 179 °C (dec.) | CCOc1cc(-c2cc(N)c(Cl)c(C(=O)O)n2)c(F)cc1Cl [Compound 109, 4-Amino-3-chloro-6-(4-chloro-2-fluoro-5-ethoxyphenyl)pyridine-2-carboxylic acid] | – | – | – | – | – | –
22 | 175 to 176 °C (dec.) | Nc1cc(-c2ccc(Cl)c(C(F)C(F)(F)F)c2F)nc(C(=O)O)c1Cl (stereo not shown) [Compound 129, 4-Amino-3-chloro-6-[4-chloro-2-fluoro-3-(1,2,2,2-tetrafluoroethyl)-phenyl)pyridine-2-carboxylic acid] | 90 | 95 | 85 | – | – | –
23 | 179 °C (dec.) | Nc1cc(-c2ccc(Cl)c(OC(F)F)c2F)nc(C(=O)O)c1Cl [Compound 134, 4-Amino-3-chloro-6-(4-chloro-3-difluoromethoxy-2-fluorophenyl)pyridine-2-carboxylic acid] | 90 | 100 | 95 | – | – | –
24 | 192 to 193 °C (dec.) | CCc1c(Cl)ccc(-c2cc(N)c(Cl)c(C(=O)O)n2)c1F [Compound 128, 4-Amino-3-chloro-6-(4-chloro-3-ethyl-2-fluorophenyl)pyridine-2-carboxylic acid] | – | – | – | – | – | –
25 | 177 to 178 °C | CN(C)c1c(Cl)ccc(-c2cc(N)c(Cl)c(C(=O)O)n2)c1Cl [Compound 117, 4-Amino-3-chloro-6-[2,4-dichloro-3-(dimethylamino)phenyl]pyridine-2-carboxylic acid] | 100 | 100 | 100 | – | – | –
26 | 165 to 167 °C (dec.) | CCC(F)c1c(Cl)ccc(-c2cc(N)c(Cl)c(C(=O)OC)n2)c1F (stereo not shown) [Compound 130, 4-Amino-3-chloro-6-[4-chloro-2-fluoro-3-(1-fluoropropyl)phenyl]pyridine-2-carboxylic acid, methyl ester] | 95 | 95 | 80 | – | – | –
